Laboratory results as given in US20240360194A1, “New Peptides as Potent and Selective GIP Receptor Agonists” (Sanofi, priority 2021, published 2024).
≈ marks a conversion by molar mass, not a printed value. Like-named read-outs stand apart in the source and are kept apart here.

Tests used:
[1] = Solubility assessment (UHPLC-UV of supernatant, target 10 mg/ml); assay type: physicochemical
Procedure, shortened: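 Peptides at 10 mg/ml (purity-corrected) in 100 mM phosphate pH 7.4, optionally with 2.7 mg/ml m-cresol; gentle agitation 1 h, then 5° C. overnight (24 h). Supernatant after 15 min centrifugation at 2500 RCF quantified by UHPLC-UV, with sequence-based extinction coefficients.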

[2] = biological target: T1, human GLP-1 receptor (hGLP-1R) (Homo sapiens, UniProt P43220); assay: In vitro cellular cAMP assay for GLP-1 receptor efficacy (HEK-293 cell line over-expressing receptor); assay type: cell-based; conditions: HEK-293, 0.1% BSA
T1 sequence (P43220 24-463): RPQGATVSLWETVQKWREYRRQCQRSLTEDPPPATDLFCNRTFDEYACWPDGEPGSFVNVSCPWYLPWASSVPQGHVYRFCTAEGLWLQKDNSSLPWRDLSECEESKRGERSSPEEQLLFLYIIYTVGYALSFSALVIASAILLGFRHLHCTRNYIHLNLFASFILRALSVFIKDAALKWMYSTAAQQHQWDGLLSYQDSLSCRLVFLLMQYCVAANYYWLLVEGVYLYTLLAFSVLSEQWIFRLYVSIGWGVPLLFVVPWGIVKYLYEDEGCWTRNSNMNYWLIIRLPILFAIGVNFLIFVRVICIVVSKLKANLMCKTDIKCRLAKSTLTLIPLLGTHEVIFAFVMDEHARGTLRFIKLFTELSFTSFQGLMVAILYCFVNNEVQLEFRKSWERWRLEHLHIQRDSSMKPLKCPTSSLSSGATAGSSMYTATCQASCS

[3] = biological target: T2, human GIP receptor (hGIPR) (Homo sapiens, UniProt P48546); assay: In vitro cellular cAMP assay for GIP receptor efficacy (HEK-293 cell line over-expressing receptor); assay type: cell-based
T2 sequence (P48546 22-466): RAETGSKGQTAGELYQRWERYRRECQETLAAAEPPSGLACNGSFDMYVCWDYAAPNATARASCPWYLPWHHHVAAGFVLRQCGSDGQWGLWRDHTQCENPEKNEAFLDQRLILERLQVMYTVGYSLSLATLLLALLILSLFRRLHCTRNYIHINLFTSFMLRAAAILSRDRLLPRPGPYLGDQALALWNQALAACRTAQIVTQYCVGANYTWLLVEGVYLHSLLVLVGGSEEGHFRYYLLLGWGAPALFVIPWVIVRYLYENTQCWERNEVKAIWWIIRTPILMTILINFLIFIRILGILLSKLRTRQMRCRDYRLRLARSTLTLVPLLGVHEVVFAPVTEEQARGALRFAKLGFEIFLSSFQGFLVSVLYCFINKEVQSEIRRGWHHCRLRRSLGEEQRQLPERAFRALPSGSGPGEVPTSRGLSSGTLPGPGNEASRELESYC

human GIP receptor = biological target: T3, human GIP receptor (Homo sapiens, UniProt P48546); assay: In vitro cellular cAMP assay for GIP receptor efficacy (human adipocytes); assay type: cell-based; conditions: for EC50: read-out: hGIPR EC50; for Emax: read-out: hGIPR Emax
T3 construct: human adipocytes endogenously expressing the human GIP receptor; host or cells: human preadipocytes (Lonza) differentiated to adipocytes
T3 sequence (P48546 22-466): T2 sequence (P48546 22-466)
Procedure, shortened: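 Human preadipocytes expanded, then differentiated 6 days (insulin, dexamethasone, PPARγ agonist, 200 μM IBMX, L-thyroxine) before plating at 5000 cells/well. Test compound applied 30 min at room temperature; cAMP measured by HTRF after 1 h with lysis-buffer reagents, read as 665/620 nm fluorescence ratio.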

[4] = biological target: T2, human GIP receptor (hGIPR); assay: Binding assay, displacement of [125I]GIP from HEK-293 membranes over-expressing GIPR (SPA); conditions: [125I]GIP displacement
Procedure, shortened: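 Membranes from HEK-293 cells over-expressing human GIPR or GLP-1R, isolated by homogenising, sonicating and ultracentrifuging at 100000×g into HEPES/EDTA/NaCl buffer with protease inhibitors, were used for binding.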

[5] = biological target: T1, human GLP-1 receptor (hGLP-1R); assay: Binding assay, displacement of [125I]GLP-1 from HEK-293 membranes over-expressing GLP-1R (SPA); conditions: [125I]GLP-1 displacement
Procedure: (1) Preparation of Membranes from HEK-293 Cells Over-Expressing GIPR or GLP-1R
HEK-293 cells recombinantly over-expressing GIPR or GLP-1R were grown to 50% confluency, washed with warm 1×PBS (Gibco) and detached in HEPES/EDTA-buffer (100 mM HEPES pH 7.5, 5 mM EDTA). Cells were harvested by centrifugation at 4° C. and 3000×g and the pellets were stored at −80° C. until further processing.
After thawing on ice, pellets were resuspended in HEPES/EDTA-buffer and homogenized on ice for 1 min using Ultra-Turray T25. After subsequent sonification the cell debris was removed by centrifugation at 1000×g and 4° C. Supernatants were then ultra-centrifuged at 100000×g and 4° C. under vacuum for 30 min. Pellets were resuspended in HEPES/EDTA/NaCl-buffer (20 mM HEPES, 1 mM EDTA, 150 mM NaCl; add 1 Complete Mini Protease inhibitor cocktail to 10 ml buffer) and protein content was determined via BCA-Protein assay.
(2) Measurement of Binding Activity of Test Compounds to Human GIPR or GLP-1R

[6] = 100 mM phosphate buffer pH 7.4 (solubility buffer system A), pH 7.4, Solubility buffer system A: 100 mM phosphate buffer pH 7.4, read-out: Soluble amount
[7] = EC50 hGIPR 0.1% BSA, HEK-293, 0.1% BSA

Compound	solubility at 24 h [1, 6]	solubility at 24 h ([1]; pH 7.4, Solubility buffer system C: 100 mM phosphate buffer pH 7.4, 2.7 mg/ml m-cresol, read-out: Soluble amount)	EC50 [2]	EC50 [3, 7]	EC50 (human GIP receptor)	Emax (human GIP receptor)	IC50 [4]	IC50 [5]	solubility ([1]; pH 7.4, Soluble amount)	EC50 ([3]; HEK-293, without albumin (0% HSA), read-out: EC50 hGIPR 0% HSA)	solubility at 24 h ([1]; pH 7.4, Soluble amount)
CC[C@H](C)[C@H](NC(=O)[C@H](CCCNC(=N)N)NC(=O)[C@H](CC(=O)O)NC(=O)[C@H](CCCCNC(=O)COCCOCCNC(=O)COCCOCCNC(=O)CC[C@H](NC(=O)CC[C@H](NC(=O)CCCCCCCCCCCCCCCCCCC(=O)O)C(=O)O)C(=O)O)NC(=O)C(C)(C)NC(=O)[C@@H](NC(=O)[C@H](CO)NC(=O)[C@H](CC(C)C)NC(=O)[C@H](CC(=O)O)NC(=O)[C@H](CO)NC(=O)[C@@H](NC(=O)[C@H](Cc1ccccc1)NC(=O)[C@@H](NC(=O)CNC(=O)[C@H](CCC(=O)O)NC(=O)C(C)(C)NC(=O)[C@@H](N)Cc1ccc(O)cc1)[C@@H](C)O)[C@@H](C)CC)[C@@H](C)CC)C(=O)N[C@@H](Cc1c[nH]cn1)C(=O)N[C@@H](CCC(N)=O)C(=O)NC(C)(C)C(=O)N[C@@H](CCC(=O)O)C(=O)N[C@@H](Cc1ccccc1)C(=O)N[C@H](C(=O)N[C@@H](CCC(=O)O)C(=O)N[C@@H](Cc1c[nH]c2ccccc12)C(=O)N[C@@H](CC(C)C)C(=O)N[C@@H](CC(C)C)C(=O)N[C@@H](C)C(=O)N[C@@H](CCC(N)=O)C(=O)N[C@@H](CCCNC(=N)N)C(=O)NCC(N)=O)[C@@H](C)CC [SEQ ID NO: 10, H2N-Y-Aib-E-G-T-F-I-S-D-L-S-I-Aib-K[{AEEA}2-{gGlu}2-C20OH]-D-R-I-H-Q-Aib-E-F-I-E-W-L-L-A-Q-R-G-NH2]	7.3 mg/mL (≈ 1620 µM)	7.2 mg/mL (≈ 1600 µM)	> 10 nM	0.0222 nM	1.2 nM	98%	0.5 nM	183 nM	–	–	–
CC[C@H](C)[C@H](NC(=O)[C@H](CCCNC(=N)N)NC(=O)[C@H](CC(=O)O)NC(=O)[C@H](CCCCNC(=O)COCCOCCNC(=O)COCCOCCNC(=O)CC[C@H](NC(=O)CCCCCCCCCCCCCCCCCCC(=O)O)C(=O)O)NC(=O)C(C)(C)NC(=O)[C@@H](NC(=O)[C@H](CO)NC(=O)[C@H](CC(C)C)NC(=O)[C@H](CC(=O)O)NC(=O)[C@H](CO)NC(=O)[C@@H](NC(=O)[C@H](Cc1ccccc1)NC(=O)[C@@H](NC(=O)CNC(=O)[C@H](CCC(=O)O)NC(=O)C(C)(C)NC(=O)[C@@H](N)Cc1ccc(O)cc1)[C@@H](C)O)[C@@H](C)CC)[C@@H](C)CC)C(=O)N[C@@H](Cc1c[nH]cn1)C(=O)N[C@@H](CCC(N)=O)C(=O)NC(C)(C)C(=O)N[C@@H](CCC(=O)O)C(=O)N[C@@H](Cc1ccccc1)C(=O)N[C@H](C(=O)N[C@@H](CCC(=O)O)C(=O)N[C@@H](Cc1c[nH]c2ccccc12)C(=O)N[C@@H](CC(C)C)C(=O)N[C@@H](CC(C)C)C(=O)N[C@@H](C)C(=O)N[C@@H](CCC(N)=O)C(=O)N[C@@H](CCCNC(=N)N)C(=O)NCC(N)=O)[C@@H](C)CC [SEQ ID NO: 11, H2N-Y-Aib-E-G-T-F-I-S-D-L-S-I-Aib-K[{AEEA}2-gGlu-C20OH]-D-R-I-H-Q-Aib-E-F-I-E-W-L-L-A-Q-R-G-NH2]	10.7 mg/mL (≈ 2450 µM)	–	> 10 nM	0.0192 nM	1.3 nM	113%	0.2 nM	97 nM	–	–	–
CC[C@H](C)[C@H](NC(=O)[C@H](CCCNC(=N)N)NC(=O)[C@H](CC(=O)O)NC(=O)[C@H](CCCCNC(=O)COCCOCCNC(=O)COCCOCCNC(=O)CC[C@H](NC(=O)CCCCCCCCCCCCCCCCC(=O)O)C(=O)O)NC(=O)C(C)(C)NC(=O)[C@@H](NC(=O)[C@H](CO)NC(=O)[C@H](CC(C)C)NC(=O)[C@H](CC(=O)O)NC(=O)[C@H](CO)NC(=O)[C@@H](NC(=O)[C@@](C)(CC)NC(=O)[C@@H](NC(=O)CNC(=O)[C@H](CCC(=O)O)NC(=O)C(C)(C)NC(=O)[C@@H](N)Cc1ccc(O)cc1)[C@@H](C)O)[C@@H](C)CC)[C@@H](C)CC)C(=O)N[C@@H](Cc1c[nH]cn1)C(=O)N[C@@H](CCC(N)=O)C(=O)N[C@@H](CCC(=O)O)C(=O)N[C@@H](CCC(=O)O)C(=O)N[C@@](C)(Cc1ccccc1)C(=O)N[C@H](C(=O)N[C@@H](CCC(=O)O)C(=O)N[C@@H](Cc1c[nH]c2ccccc12)C(=O)N[C@@H](CC(C)C)C(=O)N[C@@H](CC(C)C)C(=O)N[C@@H](C)C(=O)N[C@@H](CCC(N)=O)C(=O)N[C@@H](CCCNC(=N)N)C(=O)NCC(N)=O)[C@@H](C)CC [SEQ ID NO: 17, H2N-Y-Aib-E-G-T-Iva-I-S-D-L-S-I-Aib-K[{AEEA}2-gGlu-C18OH]-D-R-I-H-Q-E-E-Mph-I-E-W-L-L-A-Q-R-G-NH2]	–	–	> 10 nM	0.0821 nM	0.8 nM	110%	0.2 nM	935 nM	7.4 mg/mL (≈ 1700 µM)	0.00137 nM	–
CC[C@H](C)[C@H](NC(=O)[C@H](Cc1ccccc1)NC(=O)[C@H](CCC(=O)O)NC(=O)C(C)(C)NC(=O)[C@H](CCC(N)=O)NC(=O)[C@H](CCCCNC(=O)COCCOCCNC(=O)COCCOCCNC(=O)CC[C@H](NC(=O)CCCCCCCCCCCCCCCCC(=O)O)C(=O)O)NC(=O)[C@H](CCC(N)=O)NC(=O)[C@H](CCC(=O)O)NC(=O)[C@H](CCC(=O)O)NC(=O)[C@H](CC(C)C)NC(=O)C(C)(C)NC(=O)[C@@H](NC(=O)[C@H](CO)NC(=O)[C@H](CC(C)C)NC(=O)[C@H](CC(=O)O)NC(=O)[C@H](CO)NC(=O)[C@@H](NC(=O)[C@H](Cc1ccccc1)NC(=O)[C@@H](NC(=O)CNC(=O)[C@H](CCC(=O)O)NC(=O)C(C)(C)NC(=O)[C@@H](N)Cc1ccc(O)cc1)[C@@H](C)O)[C@@H](C)CC)[C@@H](C)CC)C(=O)N[C@@H](CCC(=O)O)C(=O)N[C@@H](Cc1c[nH]c2ccccc12)C(=O)N[C@@H](CC(C)C)C(=O)N[C@@H](CC(C)C)C(=O)N[C@@H](C)C(=O)N[C@@H](CCC(N)=O)C(=O)NCC(=O)N1CCC[C@H]1C(=O)N[C@@H](CO)C(=O)N[C@@H](CO)C(=O)NCC(=O)N[C@@H](CCC(=O)O)C(=O)N1CCC[C@H]1C(=O)N1CCC[C@H]1C(=O)N1CCC[C@H]1C(=O)N[C@@H](CO)C(N)=O [SEQ ID NO: 38, H2N-Y-Aib-E-G-T-F-I-S-D-L-S-I-Aib-L-E-E-Q-K[{AEEA}2-gGlu-C18OH]-Q-Aib-E-F-I-E-W-L-L-A-Q-G-P-S-S-G-E-P-P-P-S-NH2]	–	–	> 10 nM	0.0531 nM	0.4 nM	92%	0.2 nM	73 nM	–	–	> 9.2 mg/mL
